Measurements from patent US20260325473A1, “N-Beta-Hydroxybutyryl-Amino Acids and Related Compositions and Methods” (The Board of Trustees of the Leland Stanford Junior …, priority 2023, published 2026).

How the values were obtained:
[1] = Metabolite quantitation in mouse plasma (QQQ-LC/MS); type: in vivo; settings: 1 week ketogenic diet, 24 h fast, or ketone ester drink 3 g/kg
Description: (§1) Preparation of plasma samples for LC-MS analysis. Plasma was collected from mice via a submandibular bleed into lithium heparin tubes (BD, 365985) and immediately transferred onto ice. The blood was centrifuged at 4° C. at 5000 rpm for 5 min and the top layer of plasma was aliquoted and frozen at −80 °C. To extract polar metabolites from plasma for LC-MS analysis, 150 μl of a 2:1 mixture of acetonitrile/methanol was added to 50 μl of plasma. The mixture was centrifuged at 4° C. for 10 min at 15,000 rpm and the supernatant was transferred to a LC-MS vial.
(§2) Targeted metabolomics. Targeted measurements were performed using an Agilent 6470 triple quadrupole LC-MS instrument. MS analysis was performed using AJS in negative mode. The AJS source parameters were set as follows: the dry gas temperature was set at 250° C. with a gas flow of 12 l/min and the nebulizer pressure at 25 psi; the sheath gas temperature was set to 300° C. with the sheath gas flow set at 12 l/min; and the capillary voltage was set to 3,500 V. Separation of polar metabolites was performed as described above in the ‘Untargeted measurements of metabolites by LC-MS’ section. Multiple reaction monitoring was performed for the indicated metabolites with the listed dwell times, fragmentor voltage, collision energies, cell accelerator voltages and polarities. Quantification of the endogenous metabolite concentrations were performed by generating a standard curve with known concentrations of each metabolite. Metabolite standards were analyzed alongside the plasma samples using the same targeted triple quadrupole LC/MS method. A calibration standard curve generated from the metabolite standard concentrations and total peak areas were used to calculate the concentrations of each endogenous metabolite. The dilution of the plasma during the sample preparation was also taken into account for the quantification.

CNDP2 = target: T1, CNDP2 (Mus musculus, UniProt Q9D1A2); type: in vivo; settings: ketone ester drink or one week of ketogenic diet
T1 sequence (Q9D1A2 1-475): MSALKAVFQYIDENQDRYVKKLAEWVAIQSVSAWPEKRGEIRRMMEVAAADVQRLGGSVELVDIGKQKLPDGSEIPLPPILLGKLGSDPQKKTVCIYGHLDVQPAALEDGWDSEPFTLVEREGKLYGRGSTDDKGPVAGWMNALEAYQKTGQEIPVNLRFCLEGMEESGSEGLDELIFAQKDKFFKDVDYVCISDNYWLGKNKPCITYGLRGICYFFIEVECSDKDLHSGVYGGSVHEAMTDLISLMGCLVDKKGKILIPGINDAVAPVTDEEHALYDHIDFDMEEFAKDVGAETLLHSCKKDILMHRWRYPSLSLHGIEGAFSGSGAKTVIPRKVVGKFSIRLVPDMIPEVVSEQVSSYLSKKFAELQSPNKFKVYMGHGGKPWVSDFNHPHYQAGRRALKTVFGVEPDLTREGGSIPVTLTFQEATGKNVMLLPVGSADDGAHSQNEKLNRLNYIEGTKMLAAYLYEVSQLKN
Description: as §1
(§3) Targeted metabolomics. Targeted measurements were performed using an Agilent 6470 triple quadrupole LC-MS instrument. MS analysis was performed using AJS in negative mode. […] Quantification of the endogenous metabolite concentrations were performed by generating a standard curve with known concentrations of each metabolite. Metabolite standards were analyzed alongside the plasma samples using the same targeted triple quadrupole LC/MS method. […] The dilution of the plasma during the sample preparation was also taken into account for the quantification. […]

[2] = Human ketone ester supplementation study, plasma metabolites; type: in vivo; settings: 0.3 g/kg ketone ester, 60 min
Description: as §2
Human ketone ester supplementation study. Following screening, eligible subjects participated in a randomized, counter-balanced, double-blind, placebo-controlled crossover trial comparing BHB supplementation versus placebo, separated by a minimum of 2 days (ClinicalTrials.gov ID NCT04194450). Pre-menopausal women were tested in the follicular phase (days 3-9). Participants were asked to refrain from structured exercise and alcohol, limit physical activity, and follow a standardized diet (~50% carbohydrate, ~30% fat, ~20% protein) on the day before each trial. After refraining from medication use for 24 hours, participants reported to the Exercise, Metabolism and Inflammation Laboratory at the University of British Columbia-Okanagan in an overnight fasted state. Anthropometric measurements were obtained prior to insertion of an indwelling intravenous catheter into the antecubital vein for repeated blood sampling. Blood was collected into EDTA tubes (BD, 367863) and immediately centrifuged at 2000 rpm for 15 min and the top layer of plasma was aliquoted and frozen at −80 °C. After baseline (0) blood sample collection, the oral BHB supplement or placebo was consumed in liquid form (~30-65 mL). The BHB supplement (H.V.M.N®, USA) in the form of the ketone monoester (R)-3-hydroxybutyl (R)-3-hydroxybutyrate (AG®, TDeltaS, Oxford, UK) contained 0.4 g mL-1 BHB, natural flavoring, and <2% stevia leaf extract. The taste-matched placebo drink contained the same natural flavoring as the ketone supplement, stevia leaf extract, 5 mL of Bittrex stock (0.005 g of denatonium benzoate powder in 40 ml of water) and 1.5 mL of arrowroot stock (2 g of arrowroot powder in 50 ml of water) to match the bitter flavor and viscosity of the ketone monoester. Supplements were dispensed into opaque 80 ml bottles with volume calculated for 0.3 g BHB/kg body weight and labelled either A or B by a third-party researcher. Blinding was maintained until completion of data collection and analyses.

[3] = Keto-Med study, plasma metabolites; type: in vivo; settings: human; 4 weeks WFKD vs baseline
Description: as §2
Keto-Med study. Keto-Med was a single-site, randomized, crossover, interventional trial comparing 2 metabolically distinct diets (well-formulated ketogenic diet, WFKD; and Mediterranean-plus diet, Med-Plus) among individuals with prediabetes and T2DM. Forty participants aged ≥18 years with prediabetes or T2DM followed the WFKD and the Med-Plus for 12 weeks each, in random order. Participants were randomly assigned into 1 of 2 different diet sequences: WFKD for 12 weeks (phase 1) and then the Med-Plus for 12 weeks (phase 2), or the opposite order. Ad libitum intake was advised, and participants were guided to follow 2 sets of dietary guidelines that shared 3 important similarities (incorporating nonstarchy vegetables and avoiding added sugars and refined grains) and 3 important differences (incorporating compared with avoiding legumes, fruits, and whole, intact grains). During the WFKD phase, participants were counseled to sustain nutritional ketosis by limiting carbohydrates to 20-50 g/day and keeping proteins to ~1.5 g/kg ideal body weight/day, with the remaining kcals coming from fats. Participants were also instructed to consume >3 servings/day of nonstarchy vegetables and maintain adequate mineral and fluid intake for the ketogenic state (sodium, 3-5 g/day; potassium, 3-4 g/day). […]

HMGCL [4] = settings: fasting (24 h) or ketogenic diet (2 days); Goldberg et al.; cited from earlier work
HMGCL [5] = assay: Plasma metabolites in Alb-Hmgcl (-/-) mice; type: in vivo, mouse; settings: fasting or ketogenic diet
Description: as §1, §3

[6] = test system: mouse tissue lysate proteins (brain, heart, quadriceps, liver); assay: X-Phe photoprobe crosslinking in mouse tissue lysates, in-gel fluorescence; type: binding; settings: 100 μM, UV crosslinking
Description: In vitro crosslinking studies of X-Phe photoprobe. Tissues were collected from wild type C57BL/6J and homogenized using a bead blaster in PBS. The protein homogenate was filtered through a 40 μm strainer to remove any un-homogenized tissue and the lysate diluted to 2 mg/ml. Tissue lysate was incubated with 100 μM of the photoprobe and incubated on ice for 10 minutes protected from light. Reactions were then put under UV for 1 min on a UV Stratalinker. A TAMRA click reaction was performed by adding the following reagents to the indicated final concentrations: […], 1 mM CuSO4, 1 mM TCEP (freshly prepared), 25 μM TAMRA-N3. Reactions were allowed to proceed for 1 hour at room temp, protected from light. Loading buffer was added to the reactions, boiled for 10 minutes and run down a protein gel. The gel was imaged prior to staining with a coomassie dye.

With CC(O)CC(=O)O (stereo not drawn) [BHB, beta-hydroxybutyrate, reference compound] the “plasma BHB levels” value [1] was “elevated by each of these conditions”, the “plasma BHB in CNDP2-KO vs WT mice” value (CNDP2) was “unchanged” and the “plasma BHB after ketone ester drink” value [2] was “dramatically elevated”. For the same compound, the “elevation of plasma BHB on WFKD” value [3] was 5 fold and the “circulating BHB levels in Alb-Hmgcl (-/-) mice” value (HMGCL [4]) was “reductions in circulating BHB levels”.

In the case of C[C@@H](O)CC(=O)N1CCC[C@H]1C(=O)O [Keto-Pro], the “plasma level in Alb-Hmgcl (-/-) mice” value (HMGCL [5]) is reported as “reduced in Alb-Hmgcl (−/−) mice” and the “plasma keto amino acids in CNDP2-KO vs wild type mice” value (CNDP2) is reported as “unaltered”.

With C#CCCC(=O)N[C@@H](Cc1ccc(N=[N+]=[N-])cc1)C(=O)O [X-Phe photoprobe] the “labelling of tissue proteins by photoprobe” value [6] was “directly interacts with protein targets in a tissue-specific manner”.
